Results on six compounds are retold here after paper PMC5986547 (Heliyon, 2018).

Test [1] concerns the target T1, hNET (Homo sapiens, UniProt P23975). As to the kind of experiment: Reuptake inhibition assay, [3H]NE, plated hNET-HEK293 cells. Format: cell-based.
In test [2] the target is T1, hNET. To be noted: read-out: IC50, reuptake inhibition, hNET-HEK293 cells; mean ± S.E.M.; cell suspensions; cited from earlier work.
Test [3] deals with T2, rNET (Rattus norvegicus, UniProt Q63380). To be noted: read-out: Ki, reuptake inhibition, rNET, synaptosomes; cited from earlier work.
Test [4] has as its target T1, hNET. Format: cell-based.
Test [5] deals with T2, rNET. Format: biochemical. The following applies: read-out: IC50, rNET, synaptosomes (in parentheses, converted from Ki).
The next test relates to SK-N-BE(2)C cells. As to the kind of experiment: Uptake kinetics of [3H]NE by adherent SK-N-BE. Format: cell-based, human. The following applies: RT, 24-well plates, 163 μg of protein/well, mean ± S.E.M., N = 3.

Where two headings read alike, the source gives them in different places.

T1 sequence (P23975 whole entry): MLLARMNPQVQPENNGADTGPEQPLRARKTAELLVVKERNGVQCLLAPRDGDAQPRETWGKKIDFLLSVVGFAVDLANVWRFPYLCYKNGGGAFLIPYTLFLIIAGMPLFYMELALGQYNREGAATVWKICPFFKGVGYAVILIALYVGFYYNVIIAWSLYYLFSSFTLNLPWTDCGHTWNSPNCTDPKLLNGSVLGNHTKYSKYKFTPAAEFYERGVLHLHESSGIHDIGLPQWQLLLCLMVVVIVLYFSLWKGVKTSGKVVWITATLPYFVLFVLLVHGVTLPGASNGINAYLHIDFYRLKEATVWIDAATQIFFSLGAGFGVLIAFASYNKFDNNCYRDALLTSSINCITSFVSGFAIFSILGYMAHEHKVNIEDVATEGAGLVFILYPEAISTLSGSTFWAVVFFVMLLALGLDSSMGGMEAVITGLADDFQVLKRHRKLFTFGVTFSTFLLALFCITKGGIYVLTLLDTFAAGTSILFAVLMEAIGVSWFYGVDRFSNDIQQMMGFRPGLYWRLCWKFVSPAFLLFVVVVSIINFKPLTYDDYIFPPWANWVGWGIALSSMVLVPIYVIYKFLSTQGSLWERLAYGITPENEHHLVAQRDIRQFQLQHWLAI
T2 sequence (Q63380 1-617): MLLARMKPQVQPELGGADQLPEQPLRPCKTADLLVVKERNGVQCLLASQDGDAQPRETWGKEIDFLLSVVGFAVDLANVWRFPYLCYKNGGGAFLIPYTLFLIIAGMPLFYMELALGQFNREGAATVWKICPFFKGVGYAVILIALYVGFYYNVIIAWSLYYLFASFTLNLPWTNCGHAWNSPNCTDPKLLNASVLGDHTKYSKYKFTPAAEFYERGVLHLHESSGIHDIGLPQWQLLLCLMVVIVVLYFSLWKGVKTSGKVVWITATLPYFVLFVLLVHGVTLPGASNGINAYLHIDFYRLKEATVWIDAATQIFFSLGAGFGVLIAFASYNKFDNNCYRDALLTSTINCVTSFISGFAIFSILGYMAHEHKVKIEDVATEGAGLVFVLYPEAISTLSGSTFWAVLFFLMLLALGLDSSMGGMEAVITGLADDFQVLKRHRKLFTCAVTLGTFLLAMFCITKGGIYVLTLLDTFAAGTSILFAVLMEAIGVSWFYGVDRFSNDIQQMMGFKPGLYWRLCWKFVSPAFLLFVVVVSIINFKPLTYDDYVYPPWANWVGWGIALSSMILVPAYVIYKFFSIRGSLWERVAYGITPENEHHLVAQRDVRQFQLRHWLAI

As for `Fc1ccc(C(OCCN2CCN(CCCc3ccccc3)CC2)c2ccc(F)cc2)cc1` [GBR12909], the “activity in hNET-HEK293 cells, in words” value on hNET [1] was “inactive”.

Turning to `c1ccc(CCCN2CCN(CCOC(c3ccccc3)c3ccccc3)CC2)cc1` [GBR12935], the IC50 (in general, the concentration needed to halve the response being measured) on hNET [2] was 235 ± 53 nM; at hNET [4] (read-out: IC50, reuptake inhibition, hNET, SK-N-BE(2)C cells), 3470 ± 150 nM; on rNET [5], 299 nM. Moreover, at rNET [3], the Ki – broadly, the equilibrium dissociation constant of an inhibitor or competing ligand from its target – is 277 nM. In addition, the “fold less potent in SK-N-BE(2)C cells than in hNET-HEK293 cells” value at hNET [4] worked out at 14.8 fold. Also, the “fold less potent in SK-N-BE(2)C cells than in rat brain synaptosomes” value (“fold less potent … in rat brain synaptosomes” below) on hNET [4] is 11.6 fold.

As for `COC(=O)[C@H]1C(c2ccc(I)cc2)C[C@@H]2CC[C@H]1N2C` (stereo partly shown) [RTI-55], at hNET [2], the IC50 is 2.63 ± 0.76 nM. The “fold less potent … in rat brain synaptosomes” value on hNET [4] (ratio of IC50 values) came out at 6 fold. Further, on hNET [4] (ratio of IC50 values, hNET-HEK293 data of ref 8), the “fold less potent in SK-N-BE(2)C cells than in hNET-HEK293 cells” value is listed as 14.4 fold.

In the case of `CN1[C@H]2CC[C@@H]1[C@@H](C(=O)N1CCCC1)[C@@H](c1ccc(I)cc1)C2` [RTI-229], the “fold less potent … in rat brain synaptosomes” value at hNET [4] (ratio of IC50 values) worked out at 38 fold.

As to `[3H][C@](O)(CN)c1ccc(O)c(O)c1` [[^3H]NE, [^3H]norepinephrine], the “VMAX of [3H]NE uptake” value with SK-N-BE(2)C cells was 195 ± 13 fmol radioactivity/mg protein/min.

Consider `NC[C@H](O)c1ccc(O)c(O)c1` [[^3H]NE, [^3H]norepinephrine], for which the Km (in general, the substrate concentration at which the rate is half of its maximum) in the test with SK-N-BE(2)C cells (read-out: KM of [3H]NE uptake) came out at 0.416 µM.
